{"source": "patent US7598382B2", "about": "“Aryl substituted imidazoquinolines” (Coley Pharmaceutical Group, Inc., priority 2002, dated 2009)", "data": [{"units": {"melting point": "°C"}, "values": [{"compound": "CCOCc1nc2c(N)nc3cc(-c4ccccc4)ccc3c2n1CC1CCN(C(=O)OC(C)(C)C)CC1", "note": "[Example 191, tert-Butyl 4-[(4-amino-2-ethoxymethyl-7-phenyl-1H-imidazo[4,5-c]quinolin-1-yl)methyl]piperidine-1-carboxylate]", "melting point": "194 to 195"}, {"compound": "COCc1nc2c(N)nc3cc(-c4cncnc4)ccc3c2n1CC(C)(C)O", "note": "[Example 395, 1-[4-Amino-2-methoxymethyl-7-(pyrimidin-5-yl)-1H-imidazo[4,5-c]quinolin-1-yl]-2-methylpropan-2-ol]", "melting point": "220 to 220.5"}, {"compound": "CCOCc1nc2c(N)nc3cc(-c4ccccc4)ccc3c2n1CCCCN1CCCS1(=O)=O", "note": "[Example 152, 1-[4-(1,1-Dioxidoisothiazolidin-2-yl)butyl]-2-ethoxymethyl-7-phenyl-1H-imidazo[4,5-c]quinolin-4-amine]", "melting point": "167 to 168.5"}, {"compound": "CCOCc1nc2c(N)nc3cc(-c4cccc(C(=O)O)c4)ccc3c2n1CC(C)(C)O", "note": "[Example 135, 3-[4-Amino-2-ethoxymethyl-1-(2-hydroxy-2-methylpropyl)-1H-imidazo[4,5-c]quinolin-7-yl]benzoic acid]", "melting point": "> 250"}, {"compound": "CCc1ccc(-c2ccc3nc(N)c4ncn(CC(C)C)c4c3c2)cc1", "note": "[Example 118, 8-(4-Ethylphenyl)-1-(2-methylpropyl)-1H-imidazo[4,5-c]quinolin-4-amine]", "melting point": "238 to 240"}, {"compound": "CCOCc1nc2c(N)nc3cc(-c4cccnc4)ccc3c2n1CCCCNC(=O)C1CCCC1", "note": "(hydrate or solvate) [Example 374, N-{4-[4-Amino-2-ethoxymethyl-7-(pyridin-3-yl)-1H-imidazo[4,5-c]quinolin-1-yl]butyl}cyclopentanecarboxamide]", "melting point": "196 to 198"}, {"compound": "CCOCc1nc2c(N)nc3cc(-c4cncc(CO)c4)ccc3c2n1CC(C)(C)O", "note": "[Example 133, 1-[4-Amino-2-ethoxymethyl-7-(5-hydroxymethylpyridin-3-yl)-1H-imidazo[4,5-c]quinolin-1-yl]-2-methylpropan-2-ol]", "melting point": "188 to 190"}, {"compound": "CCOCc1nc2c(N)nc3cc(-c4cccnc4)ccc3c2n1C[C@H]1COC(C)(C)O1", "note": "[Example 489, (S)-1-[(2,2-Dimethyl-1,3-dioxolan-4-yl)methyl]-2-ethoxymethyl-7-(pyridin-3-yl)-1H-imidazo[4,5-c]quinolin-4-amine]", "melting point": "157 to 158"}, {"compound": "CCOCc1nc2c(N)nc3cc(-c4cccnc4)ccc3c2n1CCCCNC(=O)C(C)C", "note": "[Example 373, N-{4-[4-Amino-2-ethoxymethyl-7-(pyridin-3-yl)-1H-imidazo[4,5-c]quinolin-1-yl]butyl}-2-methylpropanamide]", "melting point": "200 to 202"}, {"compound": "COCCc1nc2c(N)nc3ccc(-c4ccccc4)cc3c2n1CCCN1CCCC1=O", "note": "(hydrate or solvate) [Example 187, 1-{3-[4-Amino-2-(2-methoxyethyl)-8-phenyl-1H-imidazo[4,5-c]quinolin-1-yl]propyl}pyrrolidin-2-one]", "melting point": "207 to 210"}, {"compound": "CCCc1nc2c(N)nc3ccc(Cc4ccccc4)cc3c2n1CC(C)(C)O", "note": "[Example 435, 1-(4-Amino-8-benzyl-2-propyl-1H-imidazo[4,5-c]quinolin-1-yl)-2-methylpropan-2-ol]", "melting point": "191 to 192"}, {"compound": "CCCc1nc2c(N)nc3cc(-c4ccccc4)ccc3c2n1CC(C)(C)NS(C)(=O)=O", "note": "[Example 200, N-[2-(4-Amino-7-phenyl-2-propyl-1H-imidazo[4,5-c]quinolin-1-yl)-1,1-dimethylethyl]methanesulfonamide]", "melting point": "135 to 141"}, {"compound": "CCOCc1nc2c(N)nc3cc(-c4cccnc4)ccc3c2n1CCCCNC(=O)NC1CCCC1", "note": "[Example 377, N-{4-[4-Amino-2-ethoxymethyl-7-(pyridin-3-yl)-1H-imidazo[4,5-c]quinolin-1-yl]butyl}-N′-cyclopentylurea]", "melting point": "190 to 192"}, {"compound": "CCOCc1nc2c(N)nc3cc(-c4cccnc4)ccc3c2n1CCCCCS(=O)(=O)NC", "note": "[Example 371, Methyl 5-[4-amino-2-ethoxymethyl-7-(pyridin-3-yl)-1H-imidazo[4,5-c]quinolin-1-yl]pentane-1-sulfonamide]", "melting point": "191 to 192"}, {"compound": "CCOCc1nc2c(N)nc3cc(-c4cccnc4)ccc3c2n1CCNC(=O)C(C)C", "note": "[Example 386, N-{2-[4-Amino-2-ethoxymethyl-7-(pyridin-3-yl)-1H-imidazo[4,5-c]quinolin-1-yl]ethyl}-2-methylpropanamide]", "melting point": "213 to 215"}, {"compound": "CC(C)Cn1cnc2c(N)nc3cc(-c4cncc(CO)c4)ccc3c21", "note": "[Example 429, 1-(2-Methylpropyl)-7-(5-hydroxymethylpyridin-3-yl)-1H-imidazo[4,5-c]quinolin-4-amine]", "melting point": "210 to 211"}, {"compound": "CCOCc1nc2c(N)nc3cc(-c4ccccc4)ccc3c2n1CCCN1CCCC1=O", "note": "[Example 205, 1-[3-(4-Amino-2-ethoxymethyl-7-phenyl-1H-imidazo[4,5-c]quinolin-1-yl)propyl]pyrrolidin-2-one]", "melting point": "199 to 203"}, {"compound": "CCCc1nc2c(N)nc3cc(CCc4ccc(C)s4)ccc3c2n1CC(C)C", "note": "[Example 461, 1-(2-Methylpropyl)-7-[2-(5-methylthiophen-2-yl)ethyl]-2-propyl-1H-imidazo[4,5-c]quinolin-4-amine]", "melting point": "150 to 152"}, {"compound": "CCOCc1nc2c(N)nc3cc(-c4ccc(Cl)cc4)ccc3c2n1CCCOC", "note": "[Example 169, 7-(4-Chlorophenyl)-2-ethoxymethyl-1-(3-methoxypropyl)-1H-imidazo[4,5-c]quinolin-4-amine]", "melting point": "188 to 190"}, {"compound": "CCCc1nc2c(N)nc3cc(-c4cccnc4)ccc3c2n1CCCCNC(=O)C1CCCC1", "note": "(hydrate or solvate) [Example 382, N-{4-[4-Amino-2-propyl-7-(pyridin-3-yl)-1H-imidazo[4,5-c]quinolin-1-yl]butyl}cyclopentanecarboxamide]", "melting point": "180 to 182"}, {"compound": "COCCc1nc2c(N)nc3cc(-c4ccncc4)ccc3c2n1CCCN1CCCC1=O", "note": "[Example 184, 1-{3-[4-Amino-2-(2-methoxyethyl)-7-(pyridin-4-yl)-1H-imidazo[4,5-c]quinolin-1-yl]propyl}pyrrolidin-2-one]", "melting point": "232 to 235"}, {"compound": "COCc1nc2c(N)nc3cc(-c4cccc(C(=O)N5CCOCC5)c4)ccc3c2n1CC(C)(C)O", "note": "(hydrate or solvate) [Example 401, {3-[4-Amino-1-(2-hydroxy-2-methylpropyl)-2-methoxymethyl-1H-imidazo[4,5-c]quinolin-7-yl]phenyl}morpholin-4-ylmethanone]", "melting point": "176 to 177"}, {"compound": "CCOCc1nc2c(N)nc3cc(-c4ccc(CO)cc4)ccc3c2n1CC1COC(C)(C)O1", "note": "(stereo not shown) [Example 160, 1-[(2,2-Dimethyl-1,3-dioxolan-4-yl)methyl]-2-ethoxymethyl-7-(4-hydroxymethylphenyl)-1H-imidazo[4,5-c]quinolin-4-amine]", "melting point": "219 to 220"}, {"compound": "CCCNC(=O)NCCCCn1c(COCC)nc2c(N)nc3cc(-c4cccnc4)ccc3c21", "note": "[Example 378, N-{4-[4-Amino-2-ethoxymethyl-7-(pyridin-3-yl)-1H-imidazo[4,5-c]quinolin-1-yl]butyl}-N′-propylurea]", "melting point": "191 to 193"}, {"compound": "CCCCc1nc2c(N)nc3cc(CCc4ccccc4)ccc3c2n1CC(C)C", "note": "[Example 8, 2-Butyl-1-isobutyl-7-phenethyl-1H-imidazo[4,5-c]quinolin-4-amine]", "melting point": "181 to 182"}]}]}
